This test concerns the target T1, N-terminal His6-tagged recombinant full-length human Lck (Homo sapiens, UniProt P06239).
T1 construct: N-terminal His6-tagged recombinant full-length human Lck; His6 (N); purchased Millipore
The experiment in a line: Lck IMAP assay. The format is biochemical. The conditions noted are these: ATP 6 μM (KM,ATP), enzyme pre-incubated with compounds for 60 minutes, values given as bins. In a few lines:
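Full-length His6-Lck at 0.1 U/ml was preincubated 60 min with compound, then run 120 min at room temperature with 100 nM fluorescein-p34cdc2 peptide and 6 μM ATP (KM) in pH 7.2 Tris buffer. Read-out by IMAP fluorescence polarization; pIC50 from ten-point √10 dilutions starting at 10^-6 M.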
T1 sequence (P06239 whole entry): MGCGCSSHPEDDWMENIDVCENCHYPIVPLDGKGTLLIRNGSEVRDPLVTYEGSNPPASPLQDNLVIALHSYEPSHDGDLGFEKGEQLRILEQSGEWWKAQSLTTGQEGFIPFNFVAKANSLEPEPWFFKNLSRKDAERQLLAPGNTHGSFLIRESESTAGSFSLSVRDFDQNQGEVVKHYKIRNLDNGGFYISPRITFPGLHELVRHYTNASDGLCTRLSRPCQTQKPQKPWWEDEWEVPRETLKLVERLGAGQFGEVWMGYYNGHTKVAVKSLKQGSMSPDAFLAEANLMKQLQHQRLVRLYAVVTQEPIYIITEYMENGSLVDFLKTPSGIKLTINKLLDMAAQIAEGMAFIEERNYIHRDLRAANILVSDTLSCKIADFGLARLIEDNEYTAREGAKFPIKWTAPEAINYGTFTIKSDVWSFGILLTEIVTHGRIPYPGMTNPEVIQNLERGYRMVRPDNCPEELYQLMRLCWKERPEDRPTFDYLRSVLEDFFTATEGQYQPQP
One may read the IC50 as the concentration that gives 50% inhibition. As for `COc1cc(-c2nc(C3CCN(C)CC3)n3ccnc(C)c23)ccc1NC(=O)c1cc2ccccc2n1C` [Example 43, N-(2-methoxy-4-(8-methyl-3-(1-methylpiperidin-4-yl)imidazo[1,5-a]pyrazin-1-yl)phenyl)-1-methyl-1H-indole-2-carboxamide], the IC50 was at most 10 nM.
Then `COc1cc(-c2nc([C@H]3CC[C@H](N4CCOCC4)CC3)n3ccnc(C)c23)ccc1NC(=O)c1cc2ccccc2n1C` [Example 12, N-(2-methoxy-4-(8-methyl-3-((trans)-4-morpholinocyclohexyl)imidazo[1,5-a]pyrazin-1-yl)phenyl)-1-methyl-1H-indole-2-carboxamide], with at most 10 nM; and `COc1cc(-c2nc([C@H]3CC[C@H](N4CCN(C)C(=O)C4)CC3)n3ccnc(C)c23)ccc1NC(=O)c1cc2c(OC)cccc2n1C` [Example 74, 4-Methoxy-N-(2-methoxy-4-(8-methyl-3-((trans)-4-(4-methyl-3-oxopiperazin-1-yl)cyclohexyl)imidazo[1,5-a]pyrazin-1-yl)phenyl)-1-methyl-1H-indole-2-carboxamide], with at most 10 nM; and `COc1cc(-c2nc(N3CCOCC3)n3ccnc(C)c23)ccc1NC(=O)c1cc2ccccc2n1C` [Example 24, N-(2-methoxy-4-(8-methyl-3-(morholin-4-yl)imidazo[1,5-a]pyrazin-1-yl)phenyl)-1-methyl-1H-indole-2-carboxamide], with at most 10 nM.
Consider `COc1cc(-c2nc([C@H]3CC[C@H](N4CC(F)(F)C4)CC3)n3ccnc(C)c23)ccc1NC(=O)c1cc2c(OC)cccc2n1C` [Example 9, N-(4-(3-((trans)-4-(3,3-difluoroazetidin-1-yl)cyclohexyl)-8-methylimidazo[1,5-a]pyrazin-1-yl)-2-methoxyphenyl)-4-methoxy-1-methyl-1H-indole-2-carboxamide], for which the IC50 was at most 10 nM.
Regarding `CCC[C@H](C)OC(=O)Nc1ccc(-c2nc([C@H]3C[C@H](N4CCN(C)CC4)C3)n3ccnc(C)c23)cc1OC` [Example 27, (S)-Pentan-2-yl 2-methoxy-4-(8-methyl-3-((1r,3r)-3-(4-methylpiperazin-1-yl)cyclobutyl)imidazo[1,5-a]pyrazin-1-yl)phenylcarbamate], the IC50 was at most 10 nM.
Regarding `COc1cc(-c2nc(C3CCOCC3)n3ccnc(C)c23)ccc1NC(=O)c1cc2ccccc2n1C` [Example 1, N-[2-Methoxy-4-[8-methyl-3-(tetrahydro-2H-pyran-4-yl)imidazo[1,5-a]pyrazine]phenyl]-1-methyl-1H-indole-2-carboxamide], the IC50 was at most 10 nM.
Then `CCC[C@H](C)OC(=O)Nc1ccc(-c2nc([C@H]3CC[C@H](CN)CC3)n3ccnc(C)c23)cc1OC` [Example 60, (S)-Pentan-2-yl 4-(3-((trans)-4-(aminomethyl)cyclohexyl)-8-methylimidazo[1,5-a]pyrazin-1-yl)-2-methoxyphenylcarbamate], with at most 10 nM; and `CCC[C@H](C)OC(=O)Nc1ccc(-c2nc([C@H]3CC[C@H](N4CCN(C(C)=O)CC4)CC3)n3ccnc(C)c23)cc1OC` [Example 33d, (S)-pentan-2-yl 4-(3-((trans)-4-(4-acetylpiperazin-1-yl)cyclohexyl)-8-methylimidazo[1,5-a]pyrazin-1-yl)-2-methoxyphenylcarbamate], with at most 10 nM.
The result for `CCC[C@H](C)OC(=O)Nc1ccc(-c2nc(N3CCC3)n3ccnc(C)c23)cc1OC` [Example 3, (S)-pentan-2-yl 4-(3-(azetidin-1-yl)-8-methylimidazo[1,5-a]pyrazin-1-yl)-2-methoxyphenylcarbamate] reads 10 to 100 nM.
The result for `CCC[C@H](C)OC(=O)Nc1ccc(-c2nc([C@H]3CC[C@H](N(CCOC)C(C)=O)CC3)n3ccnc(C)c23)cc1OC` [Example 29, (S)-Pentan-2-yl 2-methoxy-4-(3-((trans)-4-(N-(2-methoxyethyl)acetamido)cyclohexyl)-8-methylimidazo[1,5-a]pyrazin-1-yl)phenylcarbamate] reads at most 10 nM.
